Legend:
[1] = Photophysical characterization of dye-antibody complexes (spectral shifts, fluorescence quantum yields); format: physicochemical; conditions: for Absorption Maximum (nm) / Fluorescence Maximum (nm) / Fluorescence Quantum Yield (%): 1 μmol/l dye, 2.4 μmol/l antibody in PBS; for Absorption Maximum (nm) / Fluorescence Maximum (nm): 2 hours at room temperature; for Fluorescence Quantum Yield (%): relative to indocyanine green
Procedure: Dye-antibody complexes based on antibodies with binding to the indotricarbocyanine dye trisodium-3,3-dimethyl-2-{4-methyl-7-[3,3-dimethyl-5-sulfonato-1-(2-sulfonatoethyl)-3H-indolium-2-yl]hepta-2,4,6-trien-1-ylidene}-1-(2-sulfonatoethyl)-2,3-dihydro-1H-indole-5-sulfonate, inner salt, were examined (see Example 1). Solutions of the concentration of 1 μmol/l of the above-mentioned dye and 2.4 μmol/l of the respective antibody in PBS were produced and incubated for 2 hours at room temperature. The absorption maxima were determined with a spectral photometer (Perkin-Elmer, Lambda2). The fluorescence maxima and fluorescence quantum yields were determined with a SPEX fluorolog (wavelength-dependent sensitivity calibrated by lamp and detector) relative to indocyanine green (Q=0.13 in DMSO, J Chem Eng Data 1977, 22, 379, Bioconjugate Chem 2001, 12, 44). From the absorption and fluorescence maxima, the spectral shifts were calculated relative to the maxima of a solution of the above-mentioned dye without antibodies in PBS (1 μmol/l) (absorption max. 754 nm, fluorescence max. 783 nm, fluorescence quantum yield 10%).

[2] = in DMSO; cited from earlier work
[3] = bound by 12-mer peptides; cited from earlier work
[4] = Inhibition-ELISA for binding of the unconjugated dye by selected HuCAL GOLD Fab fragments
Procedure: The purified and concentrated phagemids of the HuCAL GOLD antibody library were used in a standard selection process. As antigens, BSA- or transferrin-coupled ZK203468 were used alternately. The antigens were taken up in PBS and applied at concentrations of 50 μg/ml on Maxisorp™ microtiter plates F96 (Nunc). The maxisorp plates were incubated overnight at 4° C. (“coating”). After the maxisorp plates were blocked with 5% milk powder in PBS, about 2E+13 HuCAL GOLD phages were added to the antigen-loaded, blocked-off spots and incubated there overnight or for two hours at room temperature. After several washing steps, which became more stringent with progressive selection rounds, bonded phages were eluted with 20 mmol of DTT or 100 μmol of unconjugated ZK203468. Altogether, three successive selection rounds were carried out, whereby the phage amplification was carried out between the selection rounds, as described above.
Several thousand clones were isolated after the selection and sub-cloning and tested by means of ELISA in 384-well format for specific detection of the antigens ZK203468-BSA and—transferrin used in panning. Clones identified in this connection were studied in an inhibition-ELISA for efficient binding of the unconjugated dye.

[5] = dye without antibodies in PBS (1 μmol/l)
[6] = relative to the dye without antibodies in PBS (1 μmol/l)

In the case of `CC(C=CC=C1N(CCS(=O)(=O)[O-])c2ccc(S(=O)(=O)[O-])cc2C1(C)C)=CC=CC1=[N+](CCS(=O)(=O)[O-])c2ccc(S(=O)(=O)[O-])cc2C1(C)C.[Na+].[Na+].[Na+]` [ZK203468, Trisodium-3,3-dimethyl-2-{4-methyl-7-[3,3-dimethyl-5-sulfonato-1-(2-sulfonatoethyl)-3H-indolium-2-yl]hepta-2,4,6-trien-1-ylidene}-1-(2-sulfonatoethyl)-2,3-dihydro-1H-indole-5-sulfonate, Inner Salt], the “Absorption Maximum (nm)” value [1] is reported as 754 nm, the “Fluorescence Maximum (nm)” value [1] is reported as 783 nm and the absorption max. [1, 5] is reported as 754 nm. For the same molecule, the fluorescence max. [1, 5] was 783 nm, the fluorescence quantum yield [1, 5] was 10% and the “Fluorescence Quantum Yield (%)” value [1] was 10.0%.

In the case of `CC1(C)C(/C=C/C=C/C=C/C=C2\N(CCCCS(=O)(=O)O)c3ccc4ccccc4c3C2(C)C)=[N+](CCCCS(=O)(=O)[O-])c2ccc3ccccc3c21` [indocyanine green], the “fluorescence quantum yield Q” value [2] is listed as 0.13.

In the case of Texas Red, the “red shift of the absorption” value [3] is listed as 2.8 nm and the “red shift of the fluorescence” value [3] is listed as 1.4 nm.

B1: MOR02965: HuCAL GOLD Fab fragment binding dye ZK203468; protein SEQ-ID NO: 5 (VH-CH) and 6 (VL-CL) (antibody)
heavy: QVQLQQSGPGLVKPSQTLSLTCAISGDSVSSNSAAWSWIRQSPGRGLEWLGRIYYRSKWYNDYAVSVKSRITINPDTSKNQFSLQLNSVTPEDTAVYYCARTSFYQKLFFIAFDHWGQGTLVTVSSASTKGPSVFPLAPSSKSTSGGTAALGCLVKDYFPEPVTVSWNSGALTSGVHTFPAVLQSSGLYSLSSVVTVPSSSLGTQTYICNVNHKPSNTKVDKKVEPKSEFEQKLISEEDLNGAPWSHPQFEK
light: DIALTQPASVSGSPGQSITISCTGTSSDGGAYHYVSWYQQHPGKAPKLMIYGVIYRPSGVSNRFSGSKSGNTASLTISGLQAEDEADYYCAAWDFRKRLNVFGGGTKLTVLGQPKAAPSVTLFPPSSEELQANKATLVCLISDFYPGAVTVAWKADSSPVKAGVETTTPSKQSNNKYAASSYLSLTPEQWKSHRSYSCQVTHEGSTVEKTVAPTEA
modifications: Fab fragment of variable heavy chain; Fab fragment of variable light chain
In the case of B1, the “binding to the non-conjugated dye ZK203468” value [4] is reported as “bind efficiently”, the “Absorption Maximum (nm)” value [1] is reported as 799 nm and the “Fluorescence Maximum (nm)” value [1] is reported as 815 nm. For the same molecule, the “Fluorescence Quantum Yield (%)” value [1] was 13.0%, the “Absorption Shift (nm)” value [1, 6] was 45 nm and the “Fluorescence Shift (nm)” value [1, 6] was 32 nm.

Reference: patent US20050037402A1, “Device and process for direct quantitative in vitro determination of a substance that is contained in a sample” (priority 2003, published 2005)
